From PubChem BioAssay (NCI)
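Where inhibition never reached the appropriate level, the endpoint shown equals the highest concentration tested. Otherwise, values were interpolated linearly from a five-concentration, 48-hour dose response in 96-well plates. Definition used: TGI = concentration required for complete inhibition of growth.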

What was measured:
Assay in all cases: NCI tumour cell line growth inhibition, 48 h
NCI/ADR-RES ovarian = test system: NCI/ADR-RES ovarian
DU-145 prostate = test system: DU-145 prostate
HL-60(TB) leukemia = test system: HL-60(TB) leukemia
SW-620 colon = test system: SW-620 colon
U251 CNS = test system: U251 CNS
HOP-92 NSCLC = test system: HOP-92 NSCLC
SN12C renal = test system: SN12C renal
RPMI-8226 leukemia = test system: RPMI-8226 leukemia
COLO 205 colon = test system: COLO 205 colon
SF-295 CNS = test system: SF-295 CNS
MALME-3M melanoma = test system: MALME-3M melanoma
SNB-19 CNS = test system: SNB-19 CNS
ACHN renal = test system: ACHN renal
NCI-H226 lung = test system: NCI-H226 lung
UO-31 renal = test system: UO-31 renal
IGROV1 ovarian = test system: IGROV1 ovarian
A498 renal = test system: A498 renal
SK-OV-3 ovarian = test system: SK-OV-3 ovarian
MDA-MB-435 = test system: MDA-MB-435
OVCAR-3 ovarian = test system: OVCAR-3 ovarian
MCF7 breast = test system: MCF7 breast
SNB-75 CNS = test system: SNB-75 CNS
BT-549 breast = test system: BT-549 breast
UACC-62 melanoma = test system: UACC-62 melanoma
HOP-62 NSCLC = test system: HOP-62 NSCLC
LOX IMVI melanoma = test system: LOX IMVI melanoma
786-0 renal = test system: 786-0 renal
SK-MEL-2 melanoma = test system: SK-MEL-2 melanoma
HT29 colon = test system: HT29 colon
UACC-257 melanoma = test system: UACC-257 melanoma
SR leukemia = test system: SR leukemia
HCT-15 colon = test system: HCT-15 colon
KM12 colon = test system: KM12 colon
EKVX NSCLC = test system: EKVX NSCLC
NCI-H460 lung = test system: NCI-H460 lung
OVCAR-4 ovarian = test system: OVCAR-4 ovarian
MOLT-4 leukemia = test system: MOLT-4 leukemia
T-47D breast = test system: T-47D breast
SF-268 CNS = test system: SF-268 CNS
MDA-MB-231 breast = test system: MDA-MB-231 breast
NCI-H522 lung = test system: NCI-H522 lung
OVCAR-8 ovarian = test system: OVCAR-8 ovarian
SF-539 CNS = test system: SF-539 CNS
HCC-2998 colon = test system: HCC-2998 colon
K-562 leukemia = test system: K-562 leukemia
CAKI-1 renal = test system: CAKI-1 renal
HS 578T breast = test system: HS 578T breast
HCT-116 colon = test system: HCT-116 colon
M14 melanoma = test system: M14 melanoma
RXF 393 renal = test system: RXF 393 renal
PC-3 prostate = test system: PC-3 prostate
SK-MEL-5 melanoma = test system: SK-MEL-5 melanoma
SK-MEL-28 melanoma = test system: SK-MEL-28 melanoma
TK-10 renal = test system: TK-10 renal
MDA-N = test system: MDA-N
A549 NSCLC = test system: A549 NSCLC
OVCAR-5 ovarian = test system: OVCAR-5 ovarian

SMILES: FC(F)(F)c1ccc2c(c1)nc(-c1ccccc1)n2CC1CCCN2CCCCC12 (stereo not drawn)
- TGI (NCI/ADR-RES ovarian): 34.3 µM
- TGI (DU-145 prostate): > 100 µM
- TGI (HL-60(TB) leukemia): 33.8 µM
- TGI (SW-620 colon): 69.9 µM
- TGI (U251 CNS): 56.2 µM
- TGI (HOP-92 NSCLC): 65.8 µM
- TGI (SN12C renal): 45.5 µM
- TGI (RPMI-8226 leukemia): > 100 µM
- TGI (COLO 205 colon): 26.3 µM
- TGI (SF-295 CNS): 31.7 µM
- TGI (MALME-3M melanoma): 27.2 µM
- TGI (SNB-19 CNS): > 100 µM
- TGI (ACHN renal): 56.5 µM
- TGI (NCI-H226 lung): 65.9 µM
- TGI (UO-31 renal): 1160 nM
- TGI (IGROV1 ovarian): 50.4 µM
- TGI (A498 renal): 69.1 µM
- TGI (SK-OV-3 ovarian): 37.3 µM
- TGI (MDA-MB-435): 42.3 µM
- TGI (OVCAR-3 ovarian): 40.1 µM
- TGI (MCF7 breast): 38.8 µM
- TGI (SNB-75 CNS): 50.8 µM
- TGI (BT-549 breast): 34.9 µM
- TGI (UACC-62 melanoma): 31.2 µM
- TGI (HOP-62 NSCLC): > 100 µM
- TGI (LOX IMVI melanoma): 29.1 µM
- TGI (786-0 renal): 30.7 µM
- TGI (SK-MEL-2 melanoma): 29.3 µM
- TGI (HT29 colon): 38.5 µM
- TGI (UACC-257 melanoma): 31.8 µM
- TGI (SR leukemia): 49.2 µM
- TGI (HCT-15 colon): 64 µM
- TGI (KM12 colon): 66.5 µM
- TGI (EKVX NSCLC): > 100 µM
- TGI (NCI-H460 lung): 39.3 µM
- TGI (OVCAR-4 ovarian): > 100 µM
- TGI (MOLT-4 leukemia): > 100 µM
- TGI (T-47D breast): 71.7 µM
- TGI (SF-268 CNS): 33.5 µM
- TGI (MDA-MB-231 breast): 29.4 µM
- TGI (NCI-H522 lung): 28.7 µM
- TGI (OVCAR-8 ovarian): 37.9 µM
- TGI (SF-539 CNS): 31 µM
- TGI (HCC-2998 colon): 32.3 µM
- TGI (K-562 leukemia): 58.3 µM
- TGI (CAKI-1 renal): > 100 µM
- TGI (HS 578T breast): 33.9 µM
- TGI (HCT-116 colon): 30.6 µM
- TGI (M14 melanoma): 31.9 µM
- TGI (RXF 393 renal): 75.5 µM
- TGI (PC-3 prostate): 34.1 µM
- TGI (SK-MEL-5 melanoma): 28.1 µM
- TGI (SK-MEL-28 melanoma): 35.3 µM
- TGI (TK-10 renal): 41.8 µM
- TGI (MDA-N): 36.2 µM
- TGI (A549 NSCLC): > 100 µM

SMILES: Clc1ccc(Cc2nc3cc(Cl)c(Cl)cc3n2CC2CCCN3CCCCC23)cc1Cl (stereo not drawn)
- TGI (NCI/ADR-RES ovarian): 17.2 µM
- TGI (DU-145 prostate): 19.4 µM
- TGI (HL-60(TB) leukemia): 5.93 µM
- TGI (SW-620 colon): 4.9 µM
- TGI (U251 CNS): 13.7 µM
- TGI (HOP-92 NSCLC): 22.8 µM
- TGI (SN12C renal): 15.8 µM
- TGI (RPMI-8226 leukemia): > 100 µM
- TGI (COLO 205 colon): 4.83 µM
- TGI (SF-295 CNS): 10.5 µM
- TGI (MALME-3M melanoma): 3.91 µM
- TGI (SNB-19 CNS): 8.2 µM
- TGI (ACHN renal): 16.1 µM
- TGI (NCI-H226 lung): 26.8 µM
- TGI (UO-31 renal): 1250 nM
- TGI (IGROV1 ovarian): 15.4 µM
- TGI (A498 renal): 21 µM
- TGI (SK-OV-3 ovarian): 13.4 µM
- TGI (MDA-MB-435): 17.2 µM
- TGI (OVCAR-3 ovarian): 33.2 µM
- TGI (MCF7 breast): 7.15 µM
- TGI (SNB-75 CNS): 12 µM
- TGI (BT-549 breast): 21.4 µM
- TGI (UACC-62 melanoma): 5.42 µM
- TGI (HOP-62 NSCLC): 24.5 µM
- TGI (LOX IMVI melanoma): 6 µM
- TGI (786-0 renal): 12.7 µM
- TGI (SK-MEL-2 melanoma): 19.7 µM
- TGI (HT29 colon): 6.85 µM
- TGI (UACC-257 melanoma): 10.6 µM
- TGI (SR leukemia): 7.6 µM
- TGI (HCT-15 colon): 17.1 µM
- TGI (KM12 colon): 7.51 µM
- TGI (EKVX NSCLC): 11.1 µM
- TGI (NCI-H460 lung): 9.75 µM
- TGI (OVCAR-4 ovarian): 20.3 µM
- TGI (MOLT-4 leukemia): > 100 µM
- TGI (T-47D breast): 33.4 µM
- TGI (SF-268 CNS): 15.8 µM
- TGI (MDA-MB-231 breast): 7.84 µM
- TGI (NCI-H522 lung): 3.54 µM
- TGI (OVCAR-8 ovarian): 22.6 µM
- TGI (SF-539 CNS): 4.17 µM
- TGI (HCC-2998 colon): 3.45 µM
- TGI (K-562 leukemia): > 100 µM
- TGI (CAKI-1 renal): 15.9 µM
- TGI (HS 578T breast): 19.2 µM
- TGI (HCT-116 colon): 10.7 µM
- TGI (M14 melanoma): 4.04 µM
- TGI (OVCAR-5 ovarian): 12.3 µM
- TGI (RXF 393 renal): 30.7 µM
- TGI (PC-3 prostate): 14.1 µM
- TGI (SK-MEL-5 melanoma): 4.38 µM
- TGI (SK-MEL-28 melanoma): 10.7 µM
- TGI (TK-10 renal): 19.5 µM
- TGI (MDA-N): 16.5 µM
- TGI (A549 NSCLC): 20 µM
